Experimental data published in patent US20240316042A1 (AbbVie Inc., priority 2023, published 2024).
Values after ≈ are worked out from the molar mass of the structure shown. Where two headings read alike, the source gives them in different places.

How the values were obtained:
[1] = test system: pediatric patients with pcJIA; experiment: Phase 1 open-label study in pediatric pcJIA patients: efficacy (JIA ACR, JADAS-27, C-HAQ);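 note: values come from an interim analysis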
Method: Based on these parameters, the following composite efficacy endpoints were evaluated: • JIA ACR pediatric 30/50/70/90/100 responses • Change from Baseline in JADAS10/27/71 responses, as well as JADAS-based criteria for low disease activity and remission (if deemed useful and appropriate).
This was an interim analysis.
(§1) This interim analysis includes all available pharmacokinetic and safety data and efficacy data collected through Week 48, excluding patients enrolled in the long-term safety cohort.

[2] = test system: pediatric subjects with severe atopic dermatitis; experiment: Phase 1 open-label study in pediatric subjects with severe atopic dermatitis: efficacy (vIGA-AD, EASI); assay type: in vivo, human; conditions: Week 12 (as observed)
Method: (§2) This was an open-label, multiple-dose study. AD patients (N=35) were enrolled into four cohorts (Cohort 1, 6 to <12 years with low dose; Cohort 2, 6 to <12 years with high dose; Cohort 3, 2 to <6 years with low dose; Cohort 4, 2 to <6 years with high dose). […] PK was evaluated on Day 7 post first dose. Safety was evaluated throughout the study. Exploratory efficacy parameters were collected at specified timepoints.
During Part 2 of the study, concomitant topical medications for AD were allowed during the study per investigator discretion.
No formal statistical comparisons were planned.

[3] = Solubility of upadacitinib in different aqueous media at 37° C.; assay type: physicochemical; conditions: 50 mM carbonate buffer, pH 9.11
From the text: For pediatric use, an oral solution was developed to improve acceptability (palatability and swallowability), stability, and manufacturability. […] Thus, low pH buffers such as citrate, phosphate, tartrate, and formate are suitable to prepare the oral solution. […] Citrate buffer was selected because it has favorable pKa (˜3.1), which is close to the final pH of the oral solution.

[4] = test system: pediatric patients with pcJIA; experiment: Phase 1 open-label study in pediatric pcJIA patients: safety (adverse events)
Method: (§3) Part 1 was a multiple-dose, open-label, multiple-cohort study. Two sequential multiple-ascending dose levels (Low Dose and High Dose levels) were evaluated in the 12 to <18 years age group (Group 1), and one dose level (Low Dose) was evaluated in the two younger age groups (Group 2: 6 to <12 years, and Group 3: 2 to <6 years). Low Dose and High Dose cohorts in age group 1 enrolled 9 subjects each.
(§4) The study enrolled at least 10 subjects below 30 kg. Recruitment of subjects was conducted through a staggered approach based on age. […] Part 3 was an additional safety cohort. […] Part 3 was open to age groups in which Part I enrollment was completed. […] Doses were adjusted during the study for any of the body weight categories after review of results from the subjects who completed Study Part 1.
This was an interim analysis.
as §1

[5] = test system: pediatric subjects with severe atopic dermatitis; experiment: Phase 1 open-label study in pediatric subjects with severe atopic dermatitis: safety
Method: as §2
(§5) Part 1 was a multiple-dose, open-label, multiple-cohort study that consisted of two sequential multiple-ascending dose groups (Low Dose and High Dose levels) in the two age groups. (Group 1: 6 to <12 years and Group 2: 2 to <6 years).

[6] = Phase 1 open-label study in pediatric pcJIA patients: pharmacokinetics at steady state (Day 7); assay type: in vivo, human; conditions: for AUC / half-life: human, plasma, oral; for AUC / half-life / AUC0-24, geometric mean / CLss/F, geometric mean / CLss/F_adjusted (adjusted for bioavailability), geometric mean: Day 7; for AUC: read-out: AUCtau, geometric mean; for half-life: read-out: Functional t1/2, harmonic mean (converted)
Method: as §3, §4
In Part 1, the dose was administered according to three body weight categories. Subjects were categorized based on age group, and the dose administered for seven consecutive days will be based on three different body weight categories per dose level shown in Table 2.
Patients (N=51) diagnosed with pcJIA were enrolled into one of four groups in an open-label, multiple-dose study (Group 1, 12 to <18 years, low dose; Group 2, 12 to <18 years, high dose; Group 3, 6 to <12 years, low dose; Group 4, 2 to <6 years, low dose). […] Pharmacokinetic assessment was performed at steady state on Study Day 7, after which all patients might continue the study with low dose.

[7] = Population pharmacokinetic analyses of upadacitinib exposure in adults / adult RA patients; conditions: for median average plasma exposure over a dosing interval: adult RA patients; for AUC0-24 at steady state, model-estimated: adults
Method: In Part 1, the dose was administered according to three body weight categories.
The doses selected for this study account for the difference in oral bioavailability between the extended-release tablet formulation and the oral solution. […] Doses were adjusted during the study for any of the body weight categories after review of results from the subjects who completed Part 1.

[8] = Phase 1 open-label study in pediatric subjects with severe atopic dermatitis: pharmacokinetics on Day 7; assay type: in vivo, human; conditions: for half-life / Cmax: human, plasma, oral; for half-life: read-out: t1/2, harmonic mean (pseudo standard deviation) (converted)
Method: as §2, §5
There was one additional subject who was enrolled in Cohort 3 but withdrew informed consent before PK assessment. This subject was therefore not included in PK analyses.

[9] = Enrollment on or after protocol v4.0, N 7
[10] = Enrollment up to protocol v3.0, N 20
[11] = pcJIA Group 3: 6 to <12 years, low dose, BID solution
[12] = pcJIA Group 4: 2 to <6 years, low dose, BID solution
[13] = pcJIA Group 1: 12 to <18 years, low dose, QD tablet
[14] = pcJIA Group 2: 12 to <18 years, high dose, QD tablet
[15] = pcJIA Group 3: 6 to <12 years, low dose, QD tablet
[16] = pcJIA Group 3: 6 to <12 years, low dose, tablet and solution combined
[17] = AD Cohort 1: 6 to <12 years, Low Dose, IR Solution, Day 7
[18] = AD Cohort 2: 6 to <12 years, High Dose, ER Tablet, Day 7
[19] = AD Cohort 2: 6 to <12 years, High Dose, IR Solution, Day 7
[20] = AD Cohort 3: 2 to <6 years, Low Dose, IR Solution, Day 7
[21] = AD Cohort 4: 2 to <6 years, High Dose, IR Solution, Day 7

CC[C@@H]1CN(C(=O)NCC(F)(F)F)C[C@@H]1c1cnc2cnc3[nH]ccc3n12 [upadacitinib, (3S,4R)-3-ethyl-4-(3H-imidazo[1,2-a]pyrrolo[2,3-e]pyrazin-8-yl)-N-(2,2,2-trifluoroethyl)pyrrolidine-1-carboxamide]
C-HAQ, Change from Baseline Mean ([…]% CI) ([1]; Week 12, Overall): −0.45 (−0.63, −0.27)
C-HAQ, Change from Baseline Median (Min, Max) ([1]; Week 12, Overall): −0.38 (−1.9, 1.1)
ESR, Change from Baseline Median (Min, Max) ([1]; Week 12, Overall): −4.0 (−41, 26) ^
Patient/Parent Global Assessment of Overall Well Being (VAS), Change from Baseline Median (Min, Max) ([1]; Week 12, Overall): −26.0 (−81, 37) ^
Physician's Global Assessment of Disease Activity (VAS), Change from Baseline Median (Min, Max) ([1]; Week 12, Overall): −49.0 (−100, 9) ^
Total Number of Active Joints, Change from Baseline Median (Min, Max) ([1]; Week 12, Overall): −8.0 (−25, 0) ^
C-HAQ, Change from Baseline Mean ([…]% CI) ([1]; Week 12, age 2 to <6 years): −0.31 (−0.77, 0.15)
C-HAQ, Change from Baseline Median (Min, Max) ([1]; Week 12, age 2 to <6 years): −0.38 (−1.3, 1.1)
ESR, Change from Baseline Median (Min, Max) ([1]; Week 12, age 2 to <6 years): −7.0 (−39, 2) ^
Patient/Parent Global Assessment of Overall Well Being (VAS), Change from Baseline Median (Min, Max) ([1]; Week 12, age 2 to <6 years): −38.0 (−81, 37) ^
Physician's Global Assessment of Disease Activity (VAS), Change from Baseline Median (Min, Max) ([1]; Week 12, age 2 to <6 years): −49.0 (−72, −25)
Total Number of Active Joints, Change from Baseline Median (Min, Max) ([1]; Week 12, age 2 to <6 years): −6.0 (−12, −3)
C-HAQ, Change from Baseline Mean ([…]% CI) ([1]; Week 12, age 6 to <12 years): −0.64 (−0.95, −0.34)
C-HAQ, Change from Baseline Median (Min, Max) ([1]; Week 12, age 6 to <12 years): −0.38 (−1.9, 1.1)
ESR, Change from Baseline Median (Min, Max) ([1]; Week 12, age 6 to <12 years): −4.0 (−41, 7) ^
Patient/Parent Global Assessment of Overall Well Being (VAS), Change from Baseline Median (Min, Max) ([1]; Week 12, age 6 to <12 years): −29.0 (−61, 9) ^
Physician's Global Assessment of Disease Activity (VAS), Change from Baseline Median (Min, Max) ([1]; Week 12, age 6 to <12 years): −55.0 (−100, −28)
Total Number of Active Joints, Change from Baseline Median (Min, Max) ([1]; Week 12, age 6 to <12 years): −8.0 (−24, −4)
C-HAQ, Change from Baseline Mean ([…]% CI) ([1]; Week 12, age 12 to <18 years): −0.33 (−0.58, −0.09)
C-HAQ, Change from Baseline Median (Min, Max) ([1]; Week 12, age 12 to <18 years): −0.31 (−1.1, 0.5)
ESR, Change from Baseline Median (Min, Max) ([1]; Week 12, age 12 to <18 years): −2.5 (−17, 26) ^
Patient/Parent Global Assessment of Overall Well Being (VAS), Change from Baseline Median (Min, Max) ([1]; Week 12, age 12 to <18 years): −23.0 (−45, 8) ^
Physician's Global Assessment of Disease Activity (VAS), Change from Baseline Median (Min, Max) ([1]; Week 12, age 12 to <18 years): −41.0 (−94, 9) ^
Total Number of Active Joints, Change from Baseline Median (Min, Max) ([1]; Week 12, age 12 to <18 years): −9.0 (−25, 0) ^
EASI 75, Responder ([2]; Age 2 to <6 years, N 12): 9 (75.0) n (%)
vIGA-AD of 0 or 1 with at least two grades of reduction from baseline, Responder ([2]; Age 2 to <6 years, N 12): 3 (25.0) n (%)
EASI 75, Responder ([2]; Age 6 to <12 years, N 15): 10 (66.7) n (%)
vIGA-AD of 0 or 1 with at least two grades of reduction from baseline, Responder ([2]; Age 6 to <12 years, N 15): 6 (40.0) n (%)
EASI 75, Responder [2, 9]: 7 (100) n (%)
vIGA-AD of 0 or 1 with at least two grades of reduction from baseline, Responder [2, 9]: 3 (42.9) n (%)
EASI 75, Responder [2, 10]: 12 (60.0) n (%)
vIGA-AD of 0 or 1 with at least two grades of reduction from baseline, Responder [2, 10]: 6 (30.0) n (%)
EASI 75, Responder ([2]; Overall, N 27): 19 (70.4) n (%)
vIGA-AD of 0 or 1 with at least two grades of reduction from baseline, Responder ([2]; Overall, N 27): 9 (33.3) n (%)
solubility [3]: 199 ± 6 µg/mL (≈ 523 µM)
patients reporting serious AEs or AEs leading to treatment discontinuation ([4]; pcJIA part 1, through 7 days): no patients
patients reporting adverse events (AEs) ([4]; pcJIA part 1, through 7 days, 8 out of 51 patients): 15.7%
patients reporting AEs ([4]; pcJIA part 2 and part 3, 52 out of 57 patients): 91.2%
AE of special interest: neutropenia ([4]; pcJIA part 2 and part 3, n=2/57): 3.5%
AE of special interest: hepatic disorder ([4]; pcJIA part 2 and part 3, n=3/57): 5.3%
AE of special interest: elevated creatine phosphokinase ([4]; pcJIA part 2 and part 3, n=6/57): 10.5%
patients reporting AEs leading to treatment discontinuation ([4]; pcJIA, 12 to <18 years of age group, 2 of 19): 10.5%
patients reporting serious AEs ([4]; pcJIA, 12 to <18 years of age group, six out of 19): 31.6%
uveitis events ([4]; pcJIA, during the study): no uveitis events occurred
deaths ([4]; pcJIA, interim analysis): No deaths occurred
overall safety and tolerability ([4]; pediatric patients with pcJIA): safe and well tolerated
discontinuation of upadacitinib due to adverse event ([5]; AD Part 2, n=3): 9.7%
most common AEs ([5]; children with severe AD): COVID infection, headache, and abdominal discomfort
new safety risks compared to the known safety profile ([5]; children with severe AD): No new safety risks were identified
overall safety and tolerability ([5]; children with severe AD): generally safe and well tolerated
AUC [6, 11]: 198 ng·h/mL
half-life [6, 11]: 143 min
AUC [6, 12]: 184 ng·h/mL
half-life [6, 12]: 140 min
Median AUC0-24 ([6]; pcJIA Group 1 (12 to <18 years), low-dose level): 278 ng·h/mL
AUC0-24, geometric mean [6, 13]: 269 ng·h/mL
CLss/F, geometric mean [6, 13]: 55.7 L/h
CLss/F_adjusted (adjusted for bioavailability), geometric mean [6, 13]: 38.1 L/h
Median AUC0-24 ([6]; pcJIA Group 2 (12 to <18 years), high-dose level): 547 ng·h/mL
AUC0-24, geometric mean [6, 14]: 553 ng·h/mL
CLss/F, geometric mean [6, 14]: 46.5 L/h
CLss/F_adjusted (adjusted for bioavailability), geometric mean [6, 14]: 31.8 L/h
CLss/F_adjusted (adjusted for bioavailability), geometric mean [6, 11]: 19.7 L/h
AUC0-24, geometric mean [6, 15]: 318 ng·h/mL
CLss/F, geometric mean [6, 15]: 41.6 L/h
CLss/F_adjusted (adjusted for bioavailability), geometric mean [6, 15]: 28.5 L/h
AUC0-24, geometric mean [6, 16]: 346 ng·h/mL
CLss/F_adjusted (adjusted for bioavailability), geometric mean [6, 16]: 24.7 L/h
Median AUC0-24 ([6]; pcJIA Group 4 (2 to <6 years), low-dose level): 360 ng·h/mL
CLss/F_adjusted (adjusted for bioavailability), geometric mean [6, 12]: 15.0 L/h
apparent oral clearance in relation to bodyweight ([6]; pcJIA patients): increased in pcJIA patients with increasing bodyweight
median average plasma exposure over a dosing interval ([7]; 15 mg QD extended-release formulation): 15.1 ng/mL
median average plasma exposure over a dosing interval ([7]; 30 mg QD extended-release formulation): 30.0 ng/mL
Median AUC0-24 at steady state (5th, 95th percentile) ([7]; adult patients with RA, phase 3 trials, 15 mg ER tablet daily): 358 (234, 701) ng·h/mL
AUC0-24 at steady state, model-estimated ([7]; multiple 15 mg QD doses): 362 ng·h/mL
AUC0-24 at steady state, model-estimated ([7]; multiple 30 mg QD doses): 720 ng·h/mL
CLss/F, geometric mean (mean, % CV) ([8]; AD Cohort 1: 6 to <12 years, Low Dose, ER Tablet, Day 7): 31.5 (34.2, 48) L/h
CLss/F, geometric mean (mean, % CV) [8, 17]: 19.3 (20.2, 31) L/h
CLss/F, geometric mean (mean, % CV) [8, 18]: 39.1 (42.3, 37) L/h
CLss/F, geometric mean (mean, % CV) [8, 19]: 23.0 (23.6, 27) L/h
CLss/F, geometric mean (mean, % CV) [8, 20]: 15.6 (18.6, 52) L/h
CLss/F, geometric mean (mean, % CV) [8, 21]: 20.7 (23.6, 66) L/h
half-life [8, 17]: 141 min
half-life [8, 18]: 296 min
half-life [8, 19]: 101 min
Cmax ([8]; AD Cohort 2: 6 to <12 years, high dose, Day 7 (Example 4), read-out: Geometric mean Cmax at steady-state): 95.5 ng/mL
half-life [8, 20]: 100 min
Cmax ([8]; AD Cohort 4: 2 to <6 years, High Dose, IR Solution, Day 7, read-out: Cmax, geometric mean (mean, % CV)): 96.9 ng/mL
half-life [8, 21]: 135 min
Cmax ([8]; AD Cohort 4: 2 to <6 years, high dose, Day 7 (Example 4), read-out: Geometric mean Cmax at steady-state): 101 ng/mL
